Measurements as given in US11814364B2, “Pyridine N-oxide derivatives useful as factor XIa inhibitors” (Janssen Pharmaceutica NV, priority 2021, dated 2023).

target: human plasma kallikrein (Homo sapiens, UniProt P03952); test: Kallikrein inhibition FLINT assay with quenched AMC peptide substrate Z-Gly-Pro-Arg-AMC (end point EP or kinetic KIN reads); assay type: biochemical; settings: kinetic reads at 5 min intervals over 30 min; read-out: Kallikrein (KIN) IC50
Method: A fluorescence intensity (FLINT) based assay was used to monitor inhibition of human plasma kallikrein.
The Kallikrein FLINT assay was used with the following Z-Gly-Pro-Arg-AMC assay buffer: 50 mM Tris, pH 7.5, 100 mM NaCl, 5 mM CaCl2, 0.1 mg/mL BSA, 0.03% CHAPS. Assay buffer was prepared by mixing all ingredients fresh. 2× Z-Gly-Pro-Arg-AMC peptide substrate was prepared by diluting 10 mM stock into 1× assay buffer for a 100 μM working concentration (50 μM final concentration).
Test compound(s) were run in an 11-point, 3-fold serial dilution with a final top compound concentration of 1 μM. Final DMSO in assay was 2%. Plasma kallikrein was pre-incubated for 30-minute with compound and then 50 μM substrate was added to initiate the reaction. The assay was run with either end point (EP) reads at 30 min or kinetic (KIN) reads at 5 min intervals over 30 minutes.
Percent inhibition (IC50) curves were generated per compound tested, and data was analyzed using a 4-parameter logistic fit using GeneData Screener. The relative fluorescence unit (RFU) values were normalized to percent inhibition using the following equation: % inhibition=((HC−LC)−(compound−LC)/(HC−LC))*100
An 11-point dose response curve for the test compound(s) was generated using GENDATA to determine IC50 value based on the following equation: Y=Bottom+(Top−Bottom)/(1+10^((log IC50−X)*HillSlope))
Results listed in columns with […] designation were measured using endpoint reads where a single fluorescence reading was measured for each well at a 30 min timepoint.

Chain of human plasma kallikrein (P03952 391-638 limits assumed): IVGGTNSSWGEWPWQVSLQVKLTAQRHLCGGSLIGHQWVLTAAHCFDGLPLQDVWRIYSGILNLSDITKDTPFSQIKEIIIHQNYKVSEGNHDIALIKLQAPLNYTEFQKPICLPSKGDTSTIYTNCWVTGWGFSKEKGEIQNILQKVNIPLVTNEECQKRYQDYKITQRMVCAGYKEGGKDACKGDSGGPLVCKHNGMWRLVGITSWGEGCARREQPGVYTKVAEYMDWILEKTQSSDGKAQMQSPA
Chain of human plasma kallikrein (P03952 20-390 partner limits assumed): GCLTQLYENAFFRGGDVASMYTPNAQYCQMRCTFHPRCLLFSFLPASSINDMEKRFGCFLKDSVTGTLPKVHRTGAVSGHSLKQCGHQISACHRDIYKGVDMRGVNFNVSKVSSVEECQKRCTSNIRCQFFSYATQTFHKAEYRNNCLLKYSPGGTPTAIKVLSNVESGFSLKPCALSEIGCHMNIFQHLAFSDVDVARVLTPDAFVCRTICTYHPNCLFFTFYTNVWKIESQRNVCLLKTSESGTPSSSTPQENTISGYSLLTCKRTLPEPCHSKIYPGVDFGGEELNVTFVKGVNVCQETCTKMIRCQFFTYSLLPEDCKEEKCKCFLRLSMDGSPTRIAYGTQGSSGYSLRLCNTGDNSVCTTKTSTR

Row | SMILES | IC50 [nM]
1 | NC(=O)c1ccc(-c2cnn(C(CCOC(F)F)c3ccc(-c4c(-n5cc(Cl)nn5)ccc(Cl)c4F)c[n+]3[O-])c2)cc1 (single isomer, unassigned) [Example P896] | 0.2
2 | Cc1nc(N)ccc1-c1cnn(C(CC2CC2)c2ccc(-c3c(-n4cnnn4)ccc(Cl)c3F)c[n+]2[O-])c1 (stereo not shown) [Example P183] | 186
3 | [O-][n+]1cc(-c2c(-n3cnnn3)ccc(Cl)c2F)ccc1[C@@H](Cc1ccc(C(F)F)cc1)n1cc(-c2cnnn2C(F)F)cn1 [Example P731] | 64.9
4 | COC(=O)Nc1ccc(-c2cnn(C(Cc3ccc(Cl)cc3)c3ccc(-c4c(-n5cnnn5)ccc(Cl)c4F)c[n+]3[O-])c2)cc1 (stereo not shown) [Example P94] | 18.3
5 | Cn1nncc1-c1cnn([C@H](CCOC(F)F)c2ccc(-c3c(N)ccc(Cl)c3F)c[n+]2[O-])c1 [Example Q44] | 80.7
6 | CCn1ncc(-c2cnn(C(CC3CC3)c3cc(OC)c(-c4c(-n5cnnn5)ccc(Cl)c4F)c[n+]3[O-])c2)cc1=O (stereo not shown) [Example P170] | 46.8
7 | NC(=O)c1scc(-c2cnn(C(CC3CC3)c3ccc(-c4c(-n5cnnn5)ccc(Cl)c4F)c[n+]3[O-])c2)c1F (single isomer, unassigned) [Example P954] | 788
8 | COc1cc(C(CC2CC2)n2cc(-c3ncnn3C)cn2)[n+]([O-])cc1-c1cc(Cl)ccc1C#N (single isomer, unassigned) [Example Q61] | 281
9 | Cn1ccc(C[C@H](c2ccc(-c3cc(Cl)ccc3C#N)c[n+]2[O-])n2cc(-c3ccc(C(=O)O)cc3)cn2)n1 [Example Q47] | 57.6
10 | Cn1cncc1-c1cnn(C(CC2CC2)c2ccc(-c3c(-n4cnnn4)ccc(Cl)c3F)c[n+]2[O-])c1 (stereo not shown) [Example P457] | 554
11 | O=C(O)c1ccc(-c2cnn(C(c3ccc(-c4cc(Cl)ccc4-n4cnnn4)c[n+]3[O-])C(O)c3ccccc3)c2)cc1 (single isomer, unassigned) [Example P119] | 155
12 | [O-][n+]1cc(-c2c(-n3cnnn3)ccc(Cl)c2F)ccc1[C@@H](CCOC(F)F)n1cc(-c2nn(C(F)F)cc2Cl)cn1 [Example P572] | 24.1
13 | O=C(O)c1ccc(-c2cnn(C(Cc3ccc(Cl)cc3)c3ccc(-c4cc(Cl)ccc4-n4cnnn4)c[n+]3[O-])c2)cc1 (stereo not shown) [Example P57] | 3.8
14 | [2H]C([2H])(CC(c1ccc(-c2cc(Cl)ccc2C#N)c[n+]1[O-])n1cc(-c2ncnn2C(F)F)cn1)OC(F)F (single isomer, unassigned) [Example Q53] | 222
15 | COc1ccc(C2CC2CC(c2ccc(-c3cc(Cl)ccc3-n3cnnn3)c[n+]2[O-])n2cc(-c3ccc(C(=O)O)cc3)cn2)cc1 (stereo not shown) [Example P239] | 180
16 | NC(=O)C1CC1CC(c1ccc(-c2c(-n3cnnn3)ccc(Cl)c2F)c[n+]1[O-])n1cc(-c2cc[n+]([O-])cc2)cn1 (single isomer, unassigned) [Example P283] | 74.5
17 | COC(=O)Nc1ccc(-c2cnn(C(Cn3ccccc3=O)c3ccc(-c4c(-n5cnnn5)ccc(Cl)c4F)c[n+]3[O-])c2)cc1 (stereo not shown) [Example P305] | 5.5
18 | Nc1ccc(-c2cnn(C(CCOC(F)F)c3ccc(-c4c(-n5cnnn5)ccc(Cl)c4F)c[n+]3[O-])c2)c(F)n1 (single isomer, unassigned) [Example P297] | 2.2
19 | [2H]C([2H])([2H])n1nccc1-c1cnn([C@H](CCOC(F)F)c2ccc(-c3c(-n4cnnn4)ccc(Cl)c3F)c[n+]2[O-])c1 [Example P556] | 2.4
20 | Cn1nnc(Cl)c1-c1cnn([C@H](CCOC(F)F)c2ccc(-c3c(-n4cnnn4)ccc(Cl)c3F)c[n+]2[O-])c1 [Example P726] | 7.7
21 | [O-][n+]1cc(-c2c(-n3cnnn3)ccc(Cl)c2F)ccc1[C@@H](CC1CC1)n1cc(-c2cn(C(F)F)nn2)cn1 [Example P594] | 247
22 | O=C(O)c1ccc(-c2cnn(C(CC3CC3C(=O)N3CCCC3)c3ccc(-c4cc(Cl)ccc4-n4cnnn4)c[n+]3[O-])c2)cc1 (stereo not shown) [Example P106] | 635
23 | NC(=O)C1CC1CC(c1ccc(-c2c(-n3cnnn3)ccc(Cl)c2F)c[n+]1[O-])n1cc(-c2ccc(N)nc2F)cn1 (single isomer, unassigned) [Example P337] | 556
24 | O=C(O)c1cc(-c2cnn(C(CC3CC3)c3ccc(-c4c(C(F)F)ccc(Cl)c4F)c[n+]3[O-])c2)c[nH]1 (stereo not shown) [Example Q24] | 578
25 | O=C(NC1CC1)c1ccc(-c2cnn(C(CC3CCCCO3)c3ccc(-c4c(-n5cnnn5)ccc(Cl)c4F)c[n+]3[O-])c2)cc1 (single isomer, unassigned) [Example P80] | 53.3
26 | Nc1ccc(-c2cnn(C(Cn3cc(F)cn3)c3ccc(-c4c(C(F)F)ccc(Cl)c4F)c[n+]3[O-])c2)c(F)n1 (single isomer, unassigned) [Example Q25] | 17.8

More lines, now with the values ahead:

Row | IC50 [nM] | SMILES
27 | 28.5 | [O-][n+]1cc(-c2c(-n3cnnn3)ccc(Cl)c2F)ccc1C(Cn1cc(C(F)(F)F)cn1)n1cc(-c2ccnc(F)c2)cn1 (stereo not shown) [Example P331]
28 | 2.2 | CC(C)n1ccc(C[C@H](c2ccc(-c3c(-n4cnnn4)ccc(Cl)c3F)c[n+]2[O-])n2cc(-c3ccnc(C(F)(F)F)c3)cn2)n1 [Example P652]
29 | 2.8 | COCc1ccn(CC(c2ccc(-c3c(-n4cnnn4)ccc(Cl)c3F)c[n+]2[O-])n2cc(-c3ccc(N)nc3F)cn2)n1 (stereo not shown) [Example P492]
30 | 18.6 | [O-][n+]1cc(-c2c(-n3cnnn3)ccc(Cl)c2F)ccc1C(CCOC(F)F)n1cc(-c2ccnc(C(F)(F)F)n2)cn1 (single isomer, unassigned) [Example P401]
31 | 36.6 | [O-][n+]1ccc(-c2cnn(C(Cn3cc(F)cn3)c3ccc(-c4c(-n5cnnn5)ccc(Cl)c4F)c[n+]3[O-])c2)cc1 (stereo not shown) [Example P360]
32 | 5.5 | NC(=O)c1ccc(-c2cnn(C(Cc3ncco3)c3ccc(-c4c(-n5cc(C(F)(F)F)nn5)ccc(Cl)c4F)c[n+]3[O-])c2)cc1F (stereo not shown) [Example P909]
33 | 1.4 | Nc1ccc(-c2cnn(C(Cn3cccn3)c3ccc(-c4c(-n5cnnn5)ccc(Cl)c4F)c[n+]3[O-])c2)c(F)n1 (single isomer, unassigned) [Example P314]
34 | 32.3 | CN(CC(c1ccc(-c2c(-n3cnnn3)ccc(Cl)c2F)c[n+]1[O-])n1cc(-c2ccnc(C(F)(F)F)c2)cn1)C(=O)c1ccccc1 (single isomer, unassigned) [Example P409]
35 | 17.2 | [O-][n+]1cc(-c2c(-n3cnnn3)ccc(Cl)c2F)ccc1C(Cn1cc(F)cn1)n1cc(-c2ccnc(C(F)(F)F)c2)cn1 (stereo not shown) [Example P333]
36 | 3.2 | COC(=O)Nc1ccc(-c2cnn(C(Cn3cccn3)c3ccc(-c4c(-n5cnnn5)ccc(Cl)c4F)c[n+]3[O-])c2)cc1 (single isomer, unassigned) [Example P272]
37 | 105 | CN1CCN(CC(c2ccc(-c3c(-n4cnnn4)ccc(Cl)c3F)c[n+]2[O-])n2cc(-c3ccnc(C(F)(F)F)c3)cn2)C1=O (single isomer, unassigned) [Example P433]
38 | 42.3 | Cn1nncc1-c1cnn([C@H](Cc2ccc(C(F)(F)F)nc2)c2ccc(-c3c(-n4cc(Cl)nn4)ccc(Cl)c3F)c[n+]2[O-])c1 [Example P772]
39 | 6.4 | [O-][n+]1cc(-c2c(-n3cnnn3)ccc(Cl)c2F)ccc1C(Cn1cc2c(n1)COCC2)n1cc(-c2ccnc(C(F)(F)F)c2)cn1 (stereo not shown) [Example P463]
40 | 151 | [O-][n+]1cc(-c2c(-n3cnnn3)ccc(Cl)c2F)ccc1C(CC1CC1)n1cc(-c2ccnc(OC(F)F)c2)cn1 (stereo not shown) [Example P313]
